Calls of active or inactive are those of the source.
Columns and labels:
[1] = target: Beta-galactosidase (Escherichia coli, UniProt Q8VNN2); test: Dose response counterscreen for EBI2 assay utilizing the enzyme, b-galactosidase.; assay type: functional
[2] = system: INS1; test: INS-1E survival protection against cytokine death – cell-based, luminescence, retest, dose response (AID 449756); assay type: functional; conditions: Rattus norvegicus;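 further: cell death triggered by IL-1 beta plus TNF-alpha plus IFN-gamma mixture; protective hits raise ATP signal compared with cytokine alone wells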
[3] = target: T1, Fatty acid synthase (Homo sapiens, UniProt P49327); test: inhibition of human FAS-TE enzyme activity – biochemical, endpoint fluorescence intensity, uHTS hits, dose response (AID 624327); assay type: functional;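 further: fluorescence from hydrolysis of an O-methyl fluorescein acyl ester substrate by the enzyme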
[4] = target: T2, Galanin receptor type 3 (Homo sapiens, UniProt O60755); test: Fluorescence-based cell-based primary high throughput dose response assay to identify antagonists of the Galanin Receptor 3 (GalR3).; assay type: functional
T2 sequence (O60755 whole entry): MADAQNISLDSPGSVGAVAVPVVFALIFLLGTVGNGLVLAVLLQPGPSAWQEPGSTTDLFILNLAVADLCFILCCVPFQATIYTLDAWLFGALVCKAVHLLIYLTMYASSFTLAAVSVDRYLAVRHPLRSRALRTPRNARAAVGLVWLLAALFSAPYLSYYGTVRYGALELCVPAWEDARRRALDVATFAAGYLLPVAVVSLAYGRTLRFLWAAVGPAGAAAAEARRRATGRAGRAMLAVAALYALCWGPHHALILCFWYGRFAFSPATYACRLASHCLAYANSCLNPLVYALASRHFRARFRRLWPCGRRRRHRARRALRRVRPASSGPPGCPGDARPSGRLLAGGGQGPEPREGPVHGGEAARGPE

[5] = target: T3, Probable nicotinate-nucleotide adenylyltransferase (Staphylococcus aureus (strain N315), UniProt P65502); assay type: functional, Staphylococcus aureus subsp. aureus N315;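 on IC50 Mean: confirmatory dose-response retesting of NadD inhibitor hits first found in an ultra-high-throughput screen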
[6] = target: T3, Probable nicotinate-nucleotide adenylyltransferase; assay type: functional, Staphylococcus aureus subsp. aureus N315; conditions: read-out: IC50_Mean
[7] = cells; assay type: functional, cell-based; conditions: HEK-CNG
[8] = target: T1, Fatty acid synthase; test: inhibition of human FAS-TE enzyme activity – biochemical, kinetic fluorescence intensity, dose response (AID 624326); assay type: functional;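 further: rate of fluorescence rise from hydrolysis of a fluorogenic O-methyl fluorescein ester substrate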
[9] = Luminescence Cell-Based Dose Confirmation HTS to Identify Inhibitors of Platelet Dense Granule Release. [Related pubchem assays: 1663 (Primary HTS), 1678 (Summary of Project)]; assay type: functional
[10] = target: Luciferin 4-monooxygenase (Photinus pyralis, UniProt P08659); test: inhibition of purified Photinus pyralis luciferase – biochemical, luminescence, dose response (AID 1891)
[11] = target: T4, fMet-Leu-Phe receptor (Homo sapiens, UniProt P21462); test: formyl peptide receptor binders – dose response (AID 519); assay type: functional
T4 sequence (P21462 whole entry): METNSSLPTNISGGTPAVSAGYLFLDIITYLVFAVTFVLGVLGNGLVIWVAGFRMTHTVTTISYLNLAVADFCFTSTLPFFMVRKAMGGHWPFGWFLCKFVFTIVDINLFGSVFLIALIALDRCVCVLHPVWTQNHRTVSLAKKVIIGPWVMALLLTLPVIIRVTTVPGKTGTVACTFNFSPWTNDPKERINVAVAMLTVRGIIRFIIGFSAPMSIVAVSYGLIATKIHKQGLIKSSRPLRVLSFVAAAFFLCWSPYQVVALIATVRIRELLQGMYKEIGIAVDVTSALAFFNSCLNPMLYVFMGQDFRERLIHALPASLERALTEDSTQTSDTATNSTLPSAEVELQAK

[12] = target: T5, Long-chain-fatty-acid--AMP ligase FadD28 (Mycobacterium tuberculosis, UniProt P9WQ59); test: Fluorescence polarization aasay to screen for inhibitors that compete for the binding of FadD28 to a bisubstrate Measured in Biochemical System Using Plate Reader - 2147-01_Inhibitor_Dose_CherryPick_Activity.; assay type: functional, Mycobacterium tuberculosis H37Rv
T5 sequence (P9WQ59 whole entry): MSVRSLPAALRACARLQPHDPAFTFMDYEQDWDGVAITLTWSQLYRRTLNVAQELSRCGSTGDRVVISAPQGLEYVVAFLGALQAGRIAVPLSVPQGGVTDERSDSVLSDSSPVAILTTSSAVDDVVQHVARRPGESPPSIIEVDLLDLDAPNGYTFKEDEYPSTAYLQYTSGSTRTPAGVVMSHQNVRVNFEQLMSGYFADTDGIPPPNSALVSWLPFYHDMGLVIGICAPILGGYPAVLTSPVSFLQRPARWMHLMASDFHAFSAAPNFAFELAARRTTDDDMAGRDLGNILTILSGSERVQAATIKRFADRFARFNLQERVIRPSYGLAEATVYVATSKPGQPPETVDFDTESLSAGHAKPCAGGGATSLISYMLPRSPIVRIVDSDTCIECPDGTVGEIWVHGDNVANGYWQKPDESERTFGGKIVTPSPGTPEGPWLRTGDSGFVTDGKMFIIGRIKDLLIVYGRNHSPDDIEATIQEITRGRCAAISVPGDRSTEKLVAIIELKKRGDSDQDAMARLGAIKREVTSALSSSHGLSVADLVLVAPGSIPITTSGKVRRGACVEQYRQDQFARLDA

[13] = target: T6, Zinc finger protein mex-5 (Caenorhabditis elegans, UniProt Q9XUB2); test: potency of MEX-5 RNA-binding blockers – biochemical, C. elegans, fluorescence polarization, dose response (AID 1960)
T6 sequence (Q9XUB2 whole entry): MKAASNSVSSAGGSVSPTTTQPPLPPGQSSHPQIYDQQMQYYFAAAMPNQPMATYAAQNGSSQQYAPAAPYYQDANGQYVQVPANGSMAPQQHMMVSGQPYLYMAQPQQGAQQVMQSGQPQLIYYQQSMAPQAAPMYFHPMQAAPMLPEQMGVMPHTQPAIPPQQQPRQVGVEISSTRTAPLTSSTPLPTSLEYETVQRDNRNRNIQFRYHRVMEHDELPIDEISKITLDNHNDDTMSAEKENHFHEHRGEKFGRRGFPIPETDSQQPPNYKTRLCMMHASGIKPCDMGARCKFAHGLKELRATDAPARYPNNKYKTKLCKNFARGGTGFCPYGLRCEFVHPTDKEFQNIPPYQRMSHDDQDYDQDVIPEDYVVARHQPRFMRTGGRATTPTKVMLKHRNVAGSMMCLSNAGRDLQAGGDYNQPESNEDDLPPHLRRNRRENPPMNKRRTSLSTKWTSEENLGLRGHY

[14] = target: T7, RNA-binding protein pos-1 (Caenorhabditis elegans, UniProt G5EF15); test: disruptors of C. elegans POS-1 RNA interaction – biochemical, fluorescence polarization, dose response (AID 1964);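 further: purified POS-1 fused to maltose binding protein made in E. coli; potency of compounds blocking POS-1 binding to fluorescent RNA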
T7 sequence (G5EF15 whole entry): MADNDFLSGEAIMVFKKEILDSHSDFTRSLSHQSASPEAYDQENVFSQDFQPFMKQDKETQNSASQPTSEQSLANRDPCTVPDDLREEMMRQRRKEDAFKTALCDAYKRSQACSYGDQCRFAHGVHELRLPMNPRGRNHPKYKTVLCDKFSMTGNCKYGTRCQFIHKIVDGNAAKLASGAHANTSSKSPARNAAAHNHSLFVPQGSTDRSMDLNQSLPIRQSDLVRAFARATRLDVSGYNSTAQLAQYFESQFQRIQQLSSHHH

[15] = system: Streptococcus sp. 'group A'; test: Streptococcus pyogenes SK(-)GAS viability under kanamycin – luminescence, BacTiterGlo, confirmation, counter-screen for streptokinase expression inhibitor project, dose response (AID 1900); assay type: functional, organism-based
[16] = system: Streptococcus; test: GAS UMAA2166 growth inhibition – luminescence, BacTiterGlo, counter-screen for streptokinase expression inhibitor project, dose response (AID 1915); assay type: functional, organism-based;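 further: potency for reduction of bacterial viability or growth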
[17] = HEK-293T viability loss after treatment – luminescence, T-cell screen hits, cytotoxicity control for TCR NF-kB inhibitor project, dose response (AID 489026); assay type: functional, cell-based;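 further: cells exposed to compound about 14 hours before the viability readout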
[18] = loss of viability in HepG2 cells – cell-based, CellTiter-Glo, cherry-picked, cytotoxicity control for Shn3 inhibitor project, dose response (AID 624134); assay type: functional
[19] = reduction of Shn3 3'UTR-driven luciferase in osteoblasts – cell-based, Clone20 osteoblasts, firefly luciferase, cherry-picked, dose response (AID 624132); assay type: functional;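 further: firefly luciferase luminescence from reporter carrying the Shn3 3'UTR in osteoblasts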
[20] = non-specific 3'UTR reporter inhibition in Clone20-Shn3RL – cell-based, Renilla luciferase, cherry-picked, counter-screen for Shn3 inhibitor project, dose response (AID 624133); assay type: functional
[21] = target: T8, Corticotropin-releasing factor receptor 2/Corticotropin-releasing factor-binding protein (Homo sapiens, UniProt P24387+Q13324); test: activators of CRF receptor 2 with binding protein – uHTS hits, confirmation (AID 602473); assay type: functional; conditions: read-out: EC50_Mean
T8 sequence (Q13324 whole entry): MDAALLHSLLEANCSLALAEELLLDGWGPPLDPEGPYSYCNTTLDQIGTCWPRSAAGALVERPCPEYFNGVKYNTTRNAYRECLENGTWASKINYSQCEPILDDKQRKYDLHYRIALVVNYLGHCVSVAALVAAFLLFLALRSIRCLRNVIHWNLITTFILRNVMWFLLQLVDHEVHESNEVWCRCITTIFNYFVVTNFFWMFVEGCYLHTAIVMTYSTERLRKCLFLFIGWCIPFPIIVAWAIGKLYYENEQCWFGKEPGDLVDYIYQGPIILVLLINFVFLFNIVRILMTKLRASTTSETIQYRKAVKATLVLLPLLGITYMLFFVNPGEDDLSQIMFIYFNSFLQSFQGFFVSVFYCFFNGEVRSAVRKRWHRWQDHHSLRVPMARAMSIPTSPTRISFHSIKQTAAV
T8 sequence (P24387 whole entry): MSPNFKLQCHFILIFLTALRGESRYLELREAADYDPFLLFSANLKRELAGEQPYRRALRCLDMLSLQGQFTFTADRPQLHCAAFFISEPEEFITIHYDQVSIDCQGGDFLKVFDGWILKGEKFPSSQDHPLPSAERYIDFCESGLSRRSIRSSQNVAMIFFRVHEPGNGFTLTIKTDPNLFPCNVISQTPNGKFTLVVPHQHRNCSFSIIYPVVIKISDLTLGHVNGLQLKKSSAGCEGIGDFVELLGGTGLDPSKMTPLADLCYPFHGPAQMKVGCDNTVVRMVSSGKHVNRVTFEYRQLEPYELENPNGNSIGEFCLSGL

[22] = target: T8, Corticotropin-releasing factor receptor 2/Corticotropin-releasing factor-binding protein; test: Dose Response confirmation of uHTS hits for small molecule antagonists of the CRF-binding protein and CRF-R2 receptor complex.; assay type: functional; conditions: read-out: IC50_Mean
[23] = target: T9, Nuclear receptor subfamily 0 group B member 1 (Homo sapiens, UniProt P51843); assay type: functional, cell-based;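 further: HEK293T cells transfected with SF-1 and DAX-1 plus StAR promoter luciferase reporter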
T9 sequence (P51843 whole entry): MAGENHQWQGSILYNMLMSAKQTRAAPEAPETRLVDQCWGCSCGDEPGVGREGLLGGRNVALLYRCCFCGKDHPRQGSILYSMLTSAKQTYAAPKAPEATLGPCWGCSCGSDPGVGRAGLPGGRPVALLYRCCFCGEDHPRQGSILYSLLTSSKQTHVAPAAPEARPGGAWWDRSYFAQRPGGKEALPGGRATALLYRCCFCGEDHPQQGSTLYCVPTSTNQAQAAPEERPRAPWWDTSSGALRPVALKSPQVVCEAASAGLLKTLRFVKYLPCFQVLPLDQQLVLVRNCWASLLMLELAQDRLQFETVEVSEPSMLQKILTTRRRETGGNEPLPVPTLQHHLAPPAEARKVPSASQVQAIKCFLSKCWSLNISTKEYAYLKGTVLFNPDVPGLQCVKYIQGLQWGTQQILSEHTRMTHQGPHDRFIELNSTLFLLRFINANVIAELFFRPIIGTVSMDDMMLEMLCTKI

[24] = cells; assay type: functional, cell-based

Chain of Beta-galactosidase (Q8VNN2 whole entry): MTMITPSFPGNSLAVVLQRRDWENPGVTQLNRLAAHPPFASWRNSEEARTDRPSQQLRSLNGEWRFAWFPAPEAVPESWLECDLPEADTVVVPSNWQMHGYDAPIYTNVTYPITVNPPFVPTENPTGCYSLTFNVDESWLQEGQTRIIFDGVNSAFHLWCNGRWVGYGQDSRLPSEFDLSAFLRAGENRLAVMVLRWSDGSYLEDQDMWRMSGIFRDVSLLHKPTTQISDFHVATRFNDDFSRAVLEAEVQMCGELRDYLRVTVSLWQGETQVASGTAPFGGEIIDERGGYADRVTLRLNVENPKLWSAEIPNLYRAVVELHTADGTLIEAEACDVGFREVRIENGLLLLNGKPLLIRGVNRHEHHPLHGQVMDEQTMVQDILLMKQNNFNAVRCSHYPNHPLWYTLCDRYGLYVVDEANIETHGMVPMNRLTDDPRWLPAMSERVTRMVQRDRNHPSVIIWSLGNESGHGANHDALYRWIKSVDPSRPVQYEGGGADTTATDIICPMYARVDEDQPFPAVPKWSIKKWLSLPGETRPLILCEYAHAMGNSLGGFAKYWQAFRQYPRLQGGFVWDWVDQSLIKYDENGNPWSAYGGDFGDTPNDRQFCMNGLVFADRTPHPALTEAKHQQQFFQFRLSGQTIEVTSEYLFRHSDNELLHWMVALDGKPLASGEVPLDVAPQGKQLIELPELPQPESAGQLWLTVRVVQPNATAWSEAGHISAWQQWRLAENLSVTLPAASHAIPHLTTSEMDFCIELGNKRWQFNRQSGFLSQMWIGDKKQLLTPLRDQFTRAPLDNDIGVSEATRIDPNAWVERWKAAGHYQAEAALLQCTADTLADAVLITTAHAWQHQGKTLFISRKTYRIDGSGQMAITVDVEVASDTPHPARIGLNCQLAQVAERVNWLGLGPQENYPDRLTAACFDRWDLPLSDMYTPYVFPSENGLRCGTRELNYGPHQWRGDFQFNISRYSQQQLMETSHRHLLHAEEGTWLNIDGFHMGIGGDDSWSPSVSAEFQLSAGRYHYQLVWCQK
T3 sequence (P65502 whole entry): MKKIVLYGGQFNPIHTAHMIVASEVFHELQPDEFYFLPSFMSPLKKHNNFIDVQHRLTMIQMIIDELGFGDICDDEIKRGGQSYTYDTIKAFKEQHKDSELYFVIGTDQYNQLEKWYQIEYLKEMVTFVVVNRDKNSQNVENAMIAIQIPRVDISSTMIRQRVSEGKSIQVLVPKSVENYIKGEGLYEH
T1 sequence (P49327 whole entry): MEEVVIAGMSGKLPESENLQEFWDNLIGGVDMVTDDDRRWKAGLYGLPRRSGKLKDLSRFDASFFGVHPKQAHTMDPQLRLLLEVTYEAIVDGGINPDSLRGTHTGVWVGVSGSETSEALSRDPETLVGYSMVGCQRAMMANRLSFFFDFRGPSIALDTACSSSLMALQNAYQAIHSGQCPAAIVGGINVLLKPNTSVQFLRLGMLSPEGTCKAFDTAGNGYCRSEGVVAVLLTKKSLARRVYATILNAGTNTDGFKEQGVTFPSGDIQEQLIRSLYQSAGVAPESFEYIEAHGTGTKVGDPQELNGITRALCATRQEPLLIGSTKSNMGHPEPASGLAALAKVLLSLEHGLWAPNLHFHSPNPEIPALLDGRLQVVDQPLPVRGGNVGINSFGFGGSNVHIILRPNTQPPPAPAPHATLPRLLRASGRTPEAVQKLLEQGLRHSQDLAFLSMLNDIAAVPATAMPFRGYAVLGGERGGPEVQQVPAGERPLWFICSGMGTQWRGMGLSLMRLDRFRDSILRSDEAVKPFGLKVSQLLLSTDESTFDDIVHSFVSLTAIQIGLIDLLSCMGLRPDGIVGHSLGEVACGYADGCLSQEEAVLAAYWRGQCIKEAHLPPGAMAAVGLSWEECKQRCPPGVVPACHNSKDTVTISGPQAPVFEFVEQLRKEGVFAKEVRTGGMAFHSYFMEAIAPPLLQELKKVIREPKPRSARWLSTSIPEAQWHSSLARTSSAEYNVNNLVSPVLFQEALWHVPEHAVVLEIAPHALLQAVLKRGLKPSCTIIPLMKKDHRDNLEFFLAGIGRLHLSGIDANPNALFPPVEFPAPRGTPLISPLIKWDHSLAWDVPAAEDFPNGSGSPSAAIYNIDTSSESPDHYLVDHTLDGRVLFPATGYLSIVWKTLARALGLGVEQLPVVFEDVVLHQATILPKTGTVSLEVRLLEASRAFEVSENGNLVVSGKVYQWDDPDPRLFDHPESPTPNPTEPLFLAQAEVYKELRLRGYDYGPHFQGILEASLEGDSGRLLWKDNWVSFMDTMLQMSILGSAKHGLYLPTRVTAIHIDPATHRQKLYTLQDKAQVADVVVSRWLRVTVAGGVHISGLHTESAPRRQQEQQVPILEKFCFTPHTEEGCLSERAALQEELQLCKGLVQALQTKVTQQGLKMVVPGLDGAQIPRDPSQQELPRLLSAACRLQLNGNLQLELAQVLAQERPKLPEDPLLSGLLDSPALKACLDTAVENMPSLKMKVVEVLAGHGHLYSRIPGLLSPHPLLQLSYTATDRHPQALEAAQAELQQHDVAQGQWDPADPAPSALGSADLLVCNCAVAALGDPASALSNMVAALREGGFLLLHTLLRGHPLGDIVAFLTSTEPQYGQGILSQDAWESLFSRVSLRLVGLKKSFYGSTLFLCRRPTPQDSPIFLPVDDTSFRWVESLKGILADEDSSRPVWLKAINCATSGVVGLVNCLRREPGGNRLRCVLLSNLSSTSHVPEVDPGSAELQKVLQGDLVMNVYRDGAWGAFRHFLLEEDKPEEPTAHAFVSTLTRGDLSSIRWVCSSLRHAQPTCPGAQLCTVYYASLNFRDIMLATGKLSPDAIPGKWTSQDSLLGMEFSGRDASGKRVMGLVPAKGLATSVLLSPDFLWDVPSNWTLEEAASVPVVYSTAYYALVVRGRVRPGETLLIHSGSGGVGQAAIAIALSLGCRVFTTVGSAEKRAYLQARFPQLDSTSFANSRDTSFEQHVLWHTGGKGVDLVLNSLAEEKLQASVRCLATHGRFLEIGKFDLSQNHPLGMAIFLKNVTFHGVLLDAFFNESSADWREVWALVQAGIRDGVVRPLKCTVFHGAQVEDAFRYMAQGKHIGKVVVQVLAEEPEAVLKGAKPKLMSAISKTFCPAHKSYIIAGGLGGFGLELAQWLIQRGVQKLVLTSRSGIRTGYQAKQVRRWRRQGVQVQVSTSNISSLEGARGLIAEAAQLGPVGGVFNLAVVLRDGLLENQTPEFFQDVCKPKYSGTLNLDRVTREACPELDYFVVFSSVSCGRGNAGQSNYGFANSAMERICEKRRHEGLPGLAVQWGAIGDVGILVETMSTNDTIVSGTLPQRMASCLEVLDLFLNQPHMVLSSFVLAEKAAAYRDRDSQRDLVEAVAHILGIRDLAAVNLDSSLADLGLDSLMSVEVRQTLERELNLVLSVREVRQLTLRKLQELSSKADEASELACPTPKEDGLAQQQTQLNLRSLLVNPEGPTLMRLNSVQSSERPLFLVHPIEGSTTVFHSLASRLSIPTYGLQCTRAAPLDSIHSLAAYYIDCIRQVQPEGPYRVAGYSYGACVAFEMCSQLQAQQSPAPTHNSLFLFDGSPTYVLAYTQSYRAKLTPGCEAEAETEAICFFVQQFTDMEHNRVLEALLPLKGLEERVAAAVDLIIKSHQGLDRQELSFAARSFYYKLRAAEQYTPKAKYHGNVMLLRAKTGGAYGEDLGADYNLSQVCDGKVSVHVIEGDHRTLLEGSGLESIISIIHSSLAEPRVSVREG
Chain of Luciferin 4-monooxygenase (P08659 whole entry): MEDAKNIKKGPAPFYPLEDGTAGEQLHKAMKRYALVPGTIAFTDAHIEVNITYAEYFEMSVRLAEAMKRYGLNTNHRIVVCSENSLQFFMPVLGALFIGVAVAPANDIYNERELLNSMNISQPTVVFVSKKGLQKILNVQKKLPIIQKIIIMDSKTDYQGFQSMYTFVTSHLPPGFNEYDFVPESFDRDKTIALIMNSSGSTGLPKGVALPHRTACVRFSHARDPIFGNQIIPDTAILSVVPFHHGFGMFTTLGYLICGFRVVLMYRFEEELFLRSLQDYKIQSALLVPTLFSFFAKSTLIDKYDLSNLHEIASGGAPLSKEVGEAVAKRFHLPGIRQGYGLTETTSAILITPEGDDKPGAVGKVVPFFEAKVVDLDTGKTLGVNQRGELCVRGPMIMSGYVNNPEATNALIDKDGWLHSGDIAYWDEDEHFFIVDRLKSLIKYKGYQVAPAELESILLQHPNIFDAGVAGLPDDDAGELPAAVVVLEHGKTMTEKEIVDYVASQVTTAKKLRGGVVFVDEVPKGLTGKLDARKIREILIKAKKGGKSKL

SMILES: COc1ccc(/C=C/C(=O)N2CCN(S(=O)(=O)/C=C/c3ccccc3)CC2)cc1OC
- IC50 [1]: > 80 µM (inactive)

SMILES: Cc1ccc(S(=O)(=O)Nc2ccccc2C(=O)Nc2nc(-c3ccc(F)cc3)cs2)cc1
- AC50 [2]: 2.97 µM (active)
- IC50 [3]: 9.65 µM (active)
- IC50 [4]: 1.44 µM (active)
- IC50 [5]: 7.69 µM (active)
- IC50 [6]: 62.2 µM (active)
- EC50 [7]: > 29.9 µM (inactive)
- IC50 [8]: 10.7 µM (active)

SMILES: O=C(c1cc2cc(F)ccc2[nH]1)N1CCN(Cc2ccc3c(c2)OCO3)CC1
- EC50 [9]: > 112 µM (not active)
- EC50 [10]: > 112 µM (not active)
- IC50 [1]: > 80 µM (inactive)

SMILES: CCC(=O)Nc1c(C#N)c2nc3ccccc3nc2n1-c1ccccc1C
- Ki [11]: 12 µM (active)

SMILES: C/C(Cl)=C/Cn1c(SC(C)C)nc2c1c(=O)[nH]c(=O)n2C
- AC50 [12]: > 100 µM (inactive)

SMILES: Cc1ccc(C2C3=C(O)CC(C)(C)CC3=Nc3nc(S)nc(O)c32)cc1 (stereo not drawn)
- Ki [11]: 47.9 µM (inactive)

SMILES: Cc1ccc2sc(NNC(=O)c3cc(=O)c4ccccc4o3)nc2c1C
- EC50 [13]: > 300 µM (inconclusive)
- EC50 [14]: > 300 µM (not active)
- IC50 [5]: 4.17 µM (active)
- EC50 [15]: 0.744 µM (active)
- IC50 [6]: 17.7 µM (active)
- EC50 [16]: 2.5 µM (active)

SMILES: Cc1ccc(Oc2ccc(OCC(=O)Nc3ccncc3)cc2)cc1
- IC50 [4]: 0.158 µM (active)
- IC50 [17]: > 80 µM (inactive)
- AC50 [18]: 4.76 µM (active)
- AC50 [19]: 1.55 µM (active)
- EC50 [7]: > 29.9 µM (inactive)
- AC50 [20]: < 1 µM (active)

SMILES: COc1ccc(N2CCN(C(=O)c3cc(=O)c4cc(C)c(C)cc4o3)CC2)cc1
- EC50 [21]: > 53 µM (inactive)
- IC50 [22]: > 47.1 µM (inactive)
- IC50 [1]: > 80 µM (inactive)

SMILES: S=C(NCCc1ccccc1)Nc1ncccn1
- IC50 [23]: > 67.5 µM (inactive)
- IC50 [24]: > 67.5 µM (inactive)

SMILES: COc1ccc(-n2c(C)cc(C(=O)COC(=O)Cn3cnc4ccccc43)c2C)cc1
- IC50 [4]: 0.762 µM (active)
- EC50 [7]: > 29.9 µM (inactive)

— ChEMBL document CHEMBL1201862, “PubChem BioAssay data set” (2004)
